Consider 1 compound from publication PMC3625590, “NBM-T-L-BMX-OS01, Semisynthesized from Osthole, Is a Novel Inhibitor of Histone Deacetylase and Enhances Learning and Memory in Rats” (Evidence-based Complementary and Alternative Medicine : eCAM, 2013).

Data set [1] deals with T1, HDAC8 (Homo sapiens, UniProt Q9BY41).
T1 sequence (Q9BY41 1-377): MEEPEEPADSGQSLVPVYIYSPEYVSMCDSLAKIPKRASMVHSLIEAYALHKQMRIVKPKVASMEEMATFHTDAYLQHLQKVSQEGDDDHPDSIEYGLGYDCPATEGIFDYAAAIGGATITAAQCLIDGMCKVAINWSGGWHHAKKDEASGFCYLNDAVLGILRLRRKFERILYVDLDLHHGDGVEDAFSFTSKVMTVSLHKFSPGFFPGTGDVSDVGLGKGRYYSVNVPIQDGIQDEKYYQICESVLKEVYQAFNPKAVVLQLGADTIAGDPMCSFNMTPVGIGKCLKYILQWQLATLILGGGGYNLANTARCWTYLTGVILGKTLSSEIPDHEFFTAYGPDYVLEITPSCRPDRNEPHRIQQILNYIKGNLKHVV
Particulars: cited from earlier work.

Details of data set [2]: method as in PMID 20010553. Particulars: cited from earlier work.
The test system of data set [3] is histone 4 lysine 12 acetylation (AcH4K12). Briefly: Western blot of histone 4 lysine 12 acetylation in brain tissue after behavioural tests. Type of data set: in vivo, Sprague-Dawley rats. Particulars: 5 mg/kg/d i.p. The method, then:
The hippocampus tissue and primary hippocampal cells were lysed and sonicated in an RIPA buffer (50 mM Tris-HCl (pH 7.4), 150 mM NaCl, 2 mM EDTA, 1% IGEPAL CA-630, 1 mM phenylmethylsulfonyl fluoride (PMSF), 20 μg/mL pepstatin A, 20 μg/mL leupeptin, 20 μg/mL aprotinin, 50 mM NaF, and 1 mM Na3VO4). The protocol was performed as described previously. The lysate was resolved by 8% SDS-PAGE. The proteins resolved by SDS-PAGE were transferred to the PVDF membrane (Millipore, Bedford, MA, USA) and western blotting was conducted with the following antibodies: rabbit anti-acetyl histone 4 lysine 12 and mouse anti-histone 4 (Cell signaling, Danvers, MA, USA). The secondary antibodies used include the HRP-conjugated goat-anti-rabbit IgG antibody and HRP-conjugated goat-anti-mouse IgG antibody (Millipore). The membrane was developed by reacting with a chemiluminescent HRP substrate (Millipore) and exposure to X-ray film. The protein bands were quantified using the NIH Image J Software.
A general note: A western blot detects proteins with antibodies after separation by electrophoresis.

The subject of data set [4] is CREB. Briefly: CREB phosphorylation at Ser133 in hippocampal cultured neurons. Type of data set: cell-based, Sprague-Dawley rats. On the procedure: The primary hippocampal culture was prepared as described previously. To culture embryonic hippocampal primary neurons, pregnant Sprague-Dawley rats were purchased from the National Laboratory Center in Taiwan. The hippocampal tissue from the embryos of the Sprague-Dawley rats (E19) was dissociated with 100 U/mL of papain (Sigma-Aldrich) and plated onto poly-L-lysine-coated coverslips at a density of 1 × 10^4 cells/cm^2 with a minimal essential medium containing 5% calf serum, 5% horse serum, and 50 ng/mL insulin-transferrin-selenite (Sigma-Aldrich). Three hours after plating, the medium was replaced with 2% of a B27-neurobasal medium (Invitrogen, Carlsbad, CA, USA) containing 0.5 mM glutamine and 12.5 μM glutamate.
The hippocampus tissue and primary hippocampal cells were lysed and sonicated in an RIPA buffer (50 mM Tris-HCl (pH 7.4), 150 mM NaCl, 2 mM EDTA, 1% IGEPAL CA-630, 1 mM phenylmethylsulfonyl fluoride (PMSF), 20 μg/mL pepstatin A, 20 μg/mL leupeptin, 20 μg/mL aprotinin, 50 mM NaF, and 1 mM Na3VO4). The protocol was performed as described previously. The lysate was resolved by 8% SDS-PAGE. […] The protein bands were quantified using the NIH Image J Software.

With `O=C(CCCCCCC(=O)Nc1ccccc1)NO` [SAHA, suberoylanilide hydroxamic acid, reference compound], the “inhibition of HDAC8 deacetylase activity” value in data set [1] is on record as “little inhibition of HDAC8”. Moreover, the “crossing of the blood-brain barrier” value in data set [2] is given as “cross the blood-brain barrier (BBB)”. In addition, in data set [3] (7 days after footshock), the “H4K12 acetylation in amygdala” value is given as “showed the highest H4K12 acetylation”. The “H4K12 acetylation in hippocampus” value in data set [3] (after novel object recognition task) and in data set [3] (after water-maze experiment) was “showed the highest H4K12 acetylation” throughout. In addition, the “CREB phosphorylation at Ser133” value in data set [4] is reported as “increased CREB phosphorylation at Ser133”.
